Results taken from patent US12215067B2, “Chemical compounds targeting the eye and use thereof in the treatment of eye diseases” (BIOPHYTIS, priority 2019, dated 2025).

How the values were obtained:
[1] = Pharmacokinetic study via oral administration in mice, plasma concentrations; assay type: in vivo, mice C57BL/6
Experimental: (§1) The pharmacokinetic study of the chemical compounds (C) following the oral administration thereof was conducted using mice C57BL/6 (January, 53940 The Genest Saint Isle, France). The chemical compounds derived from norbixin (C) were administered at a dose of 50 mg/kg of body weight. After administration, the blood was sampled at the tail at t=0.25 h; 0.5 h; 1 h; 3 h; 6 h and 8 h. The blood samples were centrifuged and the plasmas taken. The dosage of the plasma samples made it possible to determine pharmacokinetic parameters, namely Cmax, which corresponds to the maximum concentration observed after the administration of the molecule, Tmax which is the time required to reach maximum concentration after administration of the molecule and the AUC: the area under the curve which corresponds to the plasma exposure (FIG. 2).
(§2) The LC-MSMS analysis is carried out with a HPLC 1200 Infinity chain (Agilent Technologies, Santa-Clara, United States), a UV detector and a mass spectrometer QQQ6420 (Agilent Technologies Santa-Clara, United States). The injection volume is 5 μL. The chemical compounds C are eluted on an inverse phase column C18 (2.1*50 mm, particles 3 μm; Ace-C18-Excel, AIT) with a gradient of acetonitrile and water (containing 0.1% formic acid) and a flow rate of 0.3 mL/min. The conditions of the gradient can change according to the chemical compound C analyzed. The UV detector analyzes at 460 nm and the mass spectrometer analyzed in Mode MRM—Positive.
(§3) Table 2 discloses the pharmacokinetic results of the chemical compounds C following the administration p.o. 50 mg/kg in D-α-Tocopheryl polyethylene glycol 1000 succinate (VitE-TPGS) 20% in a sodium bicarbonate buffer (0.1M).

[2] = test system: primary cultures of RPE of adult pigs; assay: In vitro photoprotection of RPE cells illuminated with blue light in the presence of A2E; assay type: cell-based, pig; details: A2E 30 μM, survival 24 h after illumination; for viability at 5 µM / viability at 10 µM / viability at 20 µM: Sus scrofa, RPE
Excerpt: In addition to better distribution in the target-tissue, selecting new compounds must also be based on good photo-protective activity that limits the loss of the cells of the RPE and thus reducing the retinal degeneration observed during the AMD and other degenerative diseases such as Retinitis pigmentosa and Stargardt's disease. At the cellular level, on cultures of cells the RPE coming from pig retina, Fontaine et al. (2016) have shown that a treatment with norbixin (BIO201) protects the cells of the RPE against apoptosis following an illumination in the presence of A2E (80% survival 24 h after exposure). This same screening test according to the percentage of photoprotection was used so as to determine its modulation by and the chemical compounds derived from norbixin (C) object of the present invention in comparison with the photo-protective effect of norbixin and characterize these modulations from a statical standpoint.
The test in vitro described hereinabove and intended to study the photo-protective effect of norbixin was used so as to quantify the photo-protective effects of the various chemical compounds derived from norbixin (C) on the cells of the RPE illuminated with blue light in the presence of A2E (FIG. 3). The photo-protective effect of the molecules was evaluated in a phototoxicity cellular model induced by treatment by A2E followed by an illumination with blue light. The term “blue radiation” means the radiation corresponding to the blue band of the visible light spectrum, i.e. of a wavelength comprised between 435 and 490 nm. This model uses primary cultures of RPE of adult pigs. The cell survival is quantified thanks to a test of cellular viability. At −48 h the compounds to be tested (in solution at 5 mM in the DMSO) are added to obtain the final concentrations of 1 to 20 μM) then at −19 h of the A2E (final concentration 30 μM) and the cells (time 0 h) are illuminated. 24 h after the survival of the cells is measured. The acquisition of images, as well as the processing thereof, are carried out using a fluorescence microscope controlled by the Metamorph software and a dedicated quantification program. The experiments are conducted on a 96-well microplate in quadruplicate and the experiment is reproduced at least four times. The results are expressed in the form of a ratio representing the number of living cells in the wells treated by the molecules to be tested, divided by the number of living cells in the controlled wells (treated by the dilution medium without A2E). This test made it possible hereinabove to reveal the photo-protective activity of norbixin (Fontaine et al. 2016).

[3] = Pharmacokinetic study via oral administration in mice, ocular concentrations; assay type: in vivo, mice C57BL/6; details: for Eye Exposure 50 mg/kg p.o. AUC: Table 3, repeats the eye exposure of Table 2; for Tmax: C57BL/6, mouse, eye, po
Experimental: as §1
In parallel, the ocular concentrations of the chemical compounds derived from norbixin (C) were dosed in the following way (FIG. 1): both eyes of each mouse were taken in Precellys tubes and stored at −80° C. until the time of dosing. The eyes are then ground in the Precellys tubes with a bench homogenizer, Fast-prep (Fischer Scientific, Hampton, United States) in a mixture of organic solvents, in a first step with 500 μL of chloroform/methanol (1/1, v/v) then 500 μL of chloroform/dichloromethane (1/1, v/v). The supernatants are recovered at each step and transferred to a 96-well plate of 2 mL.
For the quantification of the chemical compounds C, a calibration curve is carried out with 8 standards (5 to 5,000 ng/mL) in the same organic solvent mixtures and transferred (100 μL) to the 96-well plate of 2 mL.
The supernatants and standards are evaporated in a EZ2 (Genevac, Ipswich, United Kingdom), without heating, then taken with 100 μL of DMSO/methanol (20:80, v/v) before being transferred to a 96-well plate of 200 μL.
as §2, §3

[4] = test system: primary cultures of RPE of adult pigs; details: 24 h after exposure; Fontaine et al. (2016); cited from earlier work
[5] = mice, p.o. 50 mg/kg in VitE-TPGS 20% in sodium bicarbonate buffer (0.1M)
[6] = C57BL/6, mouse, in vivo, po, 50 mg/kg

Eye Exposure 50 mg/kg p.o. AUC [3] [ng · h/eye]	Eye CMax [3, 5] [ng/eye]	Cmax [1, 6] [ng/mL]	Plasma Exposure [1, 6] [µg·h/mL]	Tmax [1, 6] [h]	Tmax [3, 5] [h]	SMILES	Plasma CMax [1, 5] [µg/mL]	Plasma TMax [1, 5] [h]	Plasma Exposure ([1]; mice, p.o. 50 mg/kg in VitE-TPGS 20% in sodium bicarbonate buffer (0.1M), area under the curve) [µg·h/mL]	Photoprotection (%) 5 μM Mean ([2]; 5 μM compound) [%]	Photoprotection (%) 10 μM Mean ([2]; 10 μM compound) [%]	Photoprotection (%) 20 μM Mean ([2]; 20 μM compound) [%]	Eye TMax [3, 5] [h]	survival of RPE cells after illumination in the presence of A2E [4] [%]	viability at 5 µM ([2]; 5 μM compound) [%]	viability at 10 µM ([2]; 10 μM compound) [%]	viability at 20 µM ([2]; 20 μM compound) [%]
54.7	11	5010	24.1	1	2	CCOCC1CCN(C(=O)/C=C/C(C)=C/C=C/C(C)=C/C=C/C=C(C)/C=C/C=C(C)\C=C\C(=O)O)CC1 [C23, 1-[4-ethylmethoxypiperidinamido](2E,4E,6E,8E,10E,12E,14E,16Z,18E)-4,8,13,17-tetramethylicosa-2,4,6,8,10,12,14,16,18-nonaenedioate]	–	–	–	–	–	–	–	–	38.4	59.2	73.1
499.1	96	48300	141.9	0.5	1.5	COC1CCN(C(=O)/C=C/C(C)=C/C=C/C(C)=C/C=C/C=C(C)/C=C/C=C(C)\C=C\C(=O)O)CC1 [C24, 1-[4-methoxypiperidinamido](2E,4E,6E,8E,10E,12E,14E,16Z,18E)-4,8,13,17-tetramethylicosa-2,4,6,8,10,12,14,16,18-nonaenedioate]	–	–	–	–	–	–	–	–	47	69	84

SMILES	Eye Exposure 50 mg/kg p.o. AUC [3] [ng · h/eye]	Eye CMax [3, 5] [ng/eye]	Cmax [1, 6] [ng/mL]	Plasma Exposure [1, 6] [µg·h/mL]	Tmax [1, 6] [h]	Tmax [3, 5] [h]	Plasma CMax [1, 5] [µg/mL]	Plasma TMax [1, 5] [h]	Plasma Exposure ([1]; mice, p.o. 50 mg/kg in VitE-TPGS 20% in sodium bicarbonate buffer (0.1M), area under the curve) [µg·h/mL]	Photoprotection (%) 5 μM Mean ([2]; 5 μM compound) [%]	Photoprotection (%) 10 μM Mean ([2]; 10 μM compound) [%]	Photoprotection (%) 20 μM Mean ([2]; 20 μM compound) [%]	Eye TMax [3, 5] [h]	survival of RPE cells after illumination in the presence of A2E [4] [%]	viability at 5 µM ([2]; 5 μM compound) [%]	viability at 10 µM ([2]; 10 μM compound) [%]	viability at 20 µM ([2]; 20 μM compound) [%]
CC(/C=C/C=C(C)/C=C/C(=O)O)=C\C=C\C=C(C)\C=C\C=C(C)\C=C\C(=O)O [BIO201, 6,6′-diapocarotene-6,6′-dioate, reference compound]	22.4	8.6	–	–	–	–	34.99	0.25	100.7	19.2	34.1	63.6	0.5	80	–	–	–
